The values below come from patent US9718809B2, “Bisarylsulfonamides useful in the treatment of inflammation and cancer” (Kancera AB, priority 2011, dated 2017).

The structures appear in SMILES notation. Where a name gives a salt, the structure may show the parent alone.

For one experiment, the system named is F-2,6-P2 in PANC-1 cells. The experiment can be described thus: Quantification of F-2,6-P2 (Van Schaftingen coupled enzyme assay) in PANC-1 cells. The class given is cell-based, human. Conditions: Homo sapiens; PANC-1 cells; read-out: IC50 based on quantification of F-2,6-P2. From the text: A method for quantification of F-2,6-P2 has been described by Van Schaftingen et al. (1982) Eur. J. Biochem. 129, 191-5. This sensitive assay is based on the potent activation of pyrophosphate dependent phosphofructokinase-1 (PPi-PFK) from potato tubers by F-2,6-P2. The use of a series of coupled enzymes leads to a consumption of NADH (nicotinamide adenine dinucleotide) that can be followed spectrophotometrically (an updated protocol is available in Van Schaftingen, (1984) Methods of Enzymatic Analysis (Bergmeyer, H. U., ed.), 3rd edn., vol. 6, pp. 335-341, Verlag Chemie, Weinheim). A protocol for measurements in 96-well microtiter plate format is also available (Bruni et al., (1989) Anal. Biochem. 178, 324-6).
The levels of F-2,6-P2 have been determined using the van Shaftingen assay as described in the protocol below, in six different cancer cell lines endogenously expressing varying levels of the different isoforms of PFK-2/BPase-2 (MCF-7, PANC-1, NUGC-3, SW480, SW620 and MIA PaCa-2). All reagents were purchased from commercial sources or prepared in-house.
Cell line B (PANC-1, human pancreatic carcinoma cell line): PANC-1 cells (ATCC-CRL-1469), lot. no. 58564651. Cells were seeded at a concentration of ˜250 000 cells/mL in 100 μL growth medium (˜25 000 cells/well).
Growth medium (cell lines B-F): Dulbecco's Modified Eagle's Medium, DMEM, VWR, LONZ12-604F; 10% FBS, Invitrogen, 10270-106.
Starvation medium (cell lines A-F): DMEM/F12 without phenol red and glucose free, SVA, 991373; 0.25% FBS, Invitrogen, 10270-106.
Induction medium (cell lines A-F): DMEM/F12 without phenol red and glucose free, SVA, 991373; 0.25% FBS, Invitrogen, 10270-106 (same as starvation medium).
Cells were seeded in 96-well Corning Costar tissue culture plates (CLS3595, Sigma-Aldrich) using the concentrations specified above for the different cell lines A-F and incubated over night at 37° C. and 5% CO2. Row A in the plate was left empty and the cell lines added to rows B-H. Next day the growth medium was discarded and replaced with 100 μL starvation medium. The plates were incubated for 18 h at 37° C. and 5% CO2. After 18 h of starvation the cells were induced with 100 μL compound or control solutions. Compounds were either tested in two concentrations (50 μM and 10 μM) or in dose response curves starting from 50 μM. The final DMSO concentration in assay plates was 0.5%. Also a dose response curve of a reference inhibitor was included in row H on each plate. All compounds were tested in duplicate plates. Compounds (in 96 well CLS 3365, Sigma-Aldrich plates) were serial diluted in DMSO from 10 mM compound DMSO stock solutions with Janus (automated liquid handling workstation from PerkinElmer). Five μL were transferred to a Greiner deep well plate (736-0155, VWR) with 495 μL starvation medium. The final start concentration of compounds in the dilution plate was 100 μM, 1% DMSO. For compounds tested as single points, 10 mM compound solutions were diluted five fold in DMSO to 2 mM, followed by the transfer of 5 μL to separate dilution plates with 495 μL starvation medium. The final concentrations of compounds in these dilution plates were 100 or 20 μM, respectively, and final concentration of DMSO was 1%. The plates were incubated at 37° C. and 5% CO2 for 1 h, followed by the addition of 10 μL 20 mM D-glucose in starvation medium. Controls, with and without 1 mM glucose, were included in row B. The final assay volume was 210 μL per well. After 2 h of incubation at 37° C. and 5% CO2, the supernatants were discarded and the cells lysed by the addition of 25 μL 250 mM NaOH. The plates were incubated at 37° C. and 5% CO2 for 5 min followed by an addition of 75 μL MilliQ dH2O. The supernatants were further diluted with 210 μL MilliQ dH2O to a final concentration of 20 mM NaOH. 200 μL were transferred to NUNC 96-well plates (7322661, VWR) and the plates were sealed and stored at −20° C. until analysis. […]
Turning to `O=C(OC1CCOC1)c1ccc(NS(=O)(=O)c2cc(Cl)sc2Cl)cc1O` (stereo not drawn) [Example 67, Tetrahydrofuran-3-yl 4-{[(2,5-dichloro-3-thienyl)sulfonyl]amino}-2-hydroxybenzoate], the IC50 was 5200 nM. For `CCCCOC(=O)c1ccc(NS(=O)(=O)c2cc(Cl)c(Cl)s2)cc1O` [Example 70, Butyl 4-{[(4,5-dichloro-2-thienyl)sulfonyl]amino}-2-hydroxybenzoate], the IC50 amounted to 200 nM. On the same count and under the same terms, in the case of `O=C(OCc1ccccc1)c1ccc(NS(=O)(=O)c2cc(Cl)c(Cl)s2)cc1O` [Example 71, Benzyl 4-{[(4,5-dichloro-2-thienyl)sulfonyl]amino}-2-hydroxybenzoate] it was 800 nM. Still for that read-out and setting: for `COC(=O)c1ccc(NS(=O)(=O)c2cccc(-c3ccccc3)c2)cc1O` [Example 87, Methyl 4-[(biphenyl-3-ylsulfonyl)amino]-2-hydroxybenzoate] the value was 1600 nM.

For `COC(=O)c1ccc(NS(=O)(=O)c2cccc(-c3ccncc3)c2)cc1O` [Example 89, Methyl 2-hydroxy-4-{[(3-pyridin-4-ylphenyl)sulfonyl]amino}benzoate trifluoroacetate], the IC50 worked out at 6700 nM. Same read-out and setting: in the case of `COC(=O)c1ccc(NS(=O)(=O)c2cccc(-c3ccc4ncccc4c3)c2)cc1O` [Example 91, Methyl 2-hydroxy-4-{[(3-quinolin-6-ylphenyl)sulfonyl]amino}benzoate trifluoroacetate] it was 4500 nM; in that of `COC(=O)c1ccc(NS(=O)(=O)c2cccc(-c3ccc(C(C)=O)s3)c2)cc1O` [Example 95, Methyl 4-({[3-(5-acetyl-2-thienyl)phenyl]sulfonyl}amino)-2-hydroxybenzoate], 1700 nM; in that of `COC(=O)c1ccc(NS(=O)(=O)c2cccc(-c3ccc(OC(F)(F)F)cc3)c2)cc1O` [Example 99, Methyl 2-hydroxy-4-({[4′-(trifluoromethoxy)biphenyl-3-yl]sulfonyl}amino)benzoate], 2400 nM. On the same count and under the same terms, in the case of `COC(=O)c1ccc(NS(=O)(=O)c2cccc(-c3ccc(C(=O)N(C)C)cc3)c2)cc1O` [Example 101, Methyl 4-({[4′-(dimethylcarbamoyl)biphenyl-3-yl]sulfonyl}amino)-2-hydroxybenzoate] it was 8400 nM; in that of `COC(=O)c1ccc(NS(=O)(=O)c2cc(-c3cccc(N)c3)c(Cl)s2)cc1O` [Example 107, Methyl 4-({[4-(3-aminophenyl)-5-chlorothiophen-2-yl]sulfonyl}amino)-2-hydroxybenzoate trifluoroacetate], 2800 nM; in that of `COC(=O)c1ccc(NS(=O)(=O)c2cc(-c3ccc(NS(C)(=O)=O)cc3)c(Cl)s2)cc1O` [Example 108, Methyl 4-{[(5-chloro-4-{4-[(methylsulfonyl)amino]phenyl}thiophen-2-yl)sulfonyl]amino}-2-hydroxybenzoate], 7700 nM. Still for that read-out and setting: in the case of `COC(=O)c1ccc(NS(=O)(=O)c2cc(-c3cccnc3)c(Cl)s2)cc1O` [Example 111, Methyl 4-{[(5-chloro-4-pyridin-3-ylthiophen-2-yl)sulfonyl]amino}-2-hydroxybenzoate] it was 4600 nM.

`COC(=O)c1ccc(NS(=O)(=O)c2cccc(-c3cccc(C(N)=O)c3)c2)cc1O` [Example 113, Methyl 4-{[(3′-carbamoylbiphenyl-3-yl)sulfonyl]amino}-2-hydroxybenzoate]: the IC50 amounted to 5400 nM.

On to `COC(=O)c1ccc(NS(=O)(=O)c2cc(-c3ccc4c(c3)CCO4)cc(C(F)(F)F)c2)cc1O` [Example 116, Methyl 4-({[3-(2,3-dihydro-1-benzofuran-5-yl)-5-(trifluoromethyl)phenyl]sulfonyl}amino)-2-hydroxybenzoate], for which the IC50 turned out to be 1700 nM. Same read-out and setting: for `COC(=O)c1ccc(NS(=O)(=O)c2ccc(-c3cc(F)ccc3F)s2)cc1O` [Example 118, Methyl 4-({[5-(2,5-difluorophenyl)thiophen-2-yl]sulfonyl}amino)-2-hydroxybenzoate] the value was 2000 nM. On the same count and under the same terms, in the case of `COC(=O)c1ccc(NS(=O)(=O)Cc2cccc(-c3ccc4c(c3)CCO4)c2)cc1O` [Example 122, Methyl 4-({[3-(2,3-dihydro-1-benzofuran-5-yl)benzyl]sulfonyl}amino)-2-hydroxybenzoate] it was 5900 nM; in that of `COC(=O)c1ccc(NS(=O)(=O)Cc2ccc(-c3ccccc3O)cc2)cc1O` [Example 126, Methyl 2-hydroxy-4-({[(2′-hydroxybiphenyl-4-yl)methyl]sulfonyl}amino)benzoate], 1400 nM.

On to `COC(=O)c1ccc(NS(=O)(=O)c2cccc(-c3cccc(C(=O)OC(C)C)c3)c2)cc1O` [Example 128, 1-Methylethyl 3′-{[3-hydroxy-4-(methoxycarbonyl)phenyl]sulfamoyl}biphenyl-3-carboxylate], for which the IC50 stood at 13300 nM. As to `COCCOC(=O)c1ccc(NS(=O)(=O)c2cc(-c3ccccc3O)c(Cl)s2)cc1O` [Example 133, 2-Methoxyethyl 4-({[5-chloro-4-(2-hydroxyphenyl)-2-thienyl]sulfonyl}amino)-2-hydroxybenzoate], the IC50 worked out at 1200 nM.

Staying with this experiment, now noted: at 12.5-50 μM in PANC-1 cells.
Consider `O=C(Oc1ccccc1)c1ccc(NS(=O)(=O)c2cc(Cl)c(Cl)s2)cc1O` [Example 73, Phenyl 4-{[(4,5-dichloro-2-thienyl)sulfonyl]amino}-2-hydroxybenzoate], for which the “inhibition (F-2,6-P2 levels)” value is reported as at least 50%. The same measure, in the same setting: for `COC(=O)c1cccc(-c2cc(S(=O)(=O)Nc3ccc(C(=O)OC)c(O)c3)sc2Cl)c1` [Example 77, Methyl 4-[({5-chloro-4-[3-(methoxycarbonyl)phenyl]thiophen-2-yl}sulfonyl)amino]-2-hydroxybenzoate] the value was at least 50%; for `COC(=O)c1ccc(NS(=O)(=O)c2cnc(Cl)c(-c3cccc(F)c3)c2)cc1O` [Example 83, Methyl 4-({[6-chloro-5-(3-fluorophenyl)pyridin-3-yl]sulfonyl}amino)-2-hydroxybenzoate], at least 50%.

Take `COC(=O)c1ccc(NS(=O)(=O)c2cccc(-c3ccc(SC)cc3)c2)cc1O` [Example 98, Methyl 2-hydroxy-4-({[4′-(methylsulfanyl)biphenyl-3-yl]sulfonyl}amino)benzoate]: the “inhibition (F-2,6-P2 levels)” value is on record as at least 50%.

As for `COC(=O)c1ccc(NS(=O)(=O)c2cccc(-c3ccc(C(F)(F)F)cc3)c2)cc1O` [Example 100, Methyl 2-hydroxy-4-({[4′-(trifluoromethyl)biphenyl-3-yl]sulfonyl}amino)benzoate], the “inhibition (F-2,6-P2 levels)” value is at least 50%. The same measure, in the same setting: for `COC(=O)c1ccc(NS(=O)(=O)c2cccc(OC)c2)cc1O` [Example 121, Methyl 2-hydroxy-4-{[(3-methoxyphenyl)sulfonyl]amino}benzoate] the value was at least 50%.

Regarding `COC(=O)c1ccc(NS(=O)(=O)c2cccc(C(C)=O)c2)cc1O` [Example 129, Methyl 4-{[(3-acetylphenyl)sulfonyl]amino}-2-hydroxybenzoate], the “inhibition (F-2,6-P2 levels)” value is at least 50%. With `COC(=O)c1ccc(NS(=O)(=O)c2cncc(-c3cccc(OC)c3F)c2)cc1O` [Example 130, Methyl 4-({[5-(2-fluoro-3-methoxyphenyl)pyridin-3-yl]sulfonyl}amino)-2-hydroxybenzoate], the “inhibition (F-2,6-P2 levels)” value is listed as at least 50%.
